As a reminder, the Kd is the constant that tells how readily two partners part at equilibrium. Lower therefore signals tighter binding. What is called Inhibition is the drop in the measured response relative to a control, in per cent. Higher therefore signals a response far below the control.

For experiment [1], the target named is salicylic acid binding protein. In words: Scatchard analysis of [14C] salicylic acid binding. The conditions noted are these: tobacco SABP; [14C] salicylic acid 2 to 70 μM. As for the experimental part: Kd is defined herein as the concentration of salicylic acid needed to occupy 50% of the binding sites on the salicylic acid binding protein when the binding process reaches its equilibrium. Thus, a smaller value of Kd indicates a stronger interaction between salicylic acid and salicylic acid binding protein and vice versa. Kd is determined by measuring the amounts of salicylic acid bound to salicylic acid binding-protein at various concentrations of salicylic acid and then plotting the ratio of bound to free, salicylic acid concentrations versus bound salicylic acid concentrations to give a linear plot with a slope of -1/Kd. […]
A key element during the characterization and the purification process is a simple, inexpensive, sensitive and reliable method for determining the salicylic acid binding activity. […] (specifically radioactivity 55 Ci/mol; purchased from New England Nuclear), 150 μl of proteins binding sample was loaded onto the tube column, which was then rapidly centrifuged for 2 minutes at full speed and the solution of proteins and bound [^14 C-salicylic acid] that was excluded from the gel was collected into another tube that had been placed under the tube column during the centrifugation. […]

In experiment [2] the target is cucumber salicylic acid binding protein. In words: Salicylic acid binding activity from cucumber. Particulars: cucumber derived salicylic acid binding protein. The source says: Several, of the MAbs that bind to the tobacco 57 kDa protein and 280 kDa complex also recognize a 57 kDa protein in fresh homogenates from cucumbers. The salicylic acid binding activity from cucumber has similar affinity (Kd) and specificity as the tobacco salicylic acid binding protein. Like the tobacco salicylic acid binding protein, the cucumber salicylic acid binding protein also has a large native molecular weight (approximately 200 kDa). Thus, it appears that the cucumber salicylic acid binding protein is also a complex composed of multiple subunits at least one of which is probably the 57 kDa protein recognized by the MAbs made against the tobacco salicylic acid binding protein. It should be noted, however, that there may be some minor variation in molecular weight and Kd for salicylic acid binding protein from one plant species to the next. For example, cucumber derived salicylic acid binding protein appears to have an apparent average native molecular weight of about 200 kDa and a Kd of about 30±5 μM.

The next experiment relates to H2 O2. Kind of experiment: Abundance of H2O2 in treated tobacco leaves. Particulars: FIG. 11. It is filed as in vivo. The source says: The abundance of H2 O2 increased in SA- or 3AT-treated tobacco leaves by 50-60% over the control levels observed in water-treated leaves. […] Thus, elevated levels of H2 O2, and in turn, enhanced oxidative stress in vivo, were consistent with inhibition of catalase activity by SA observed in vitro.

The test system of another experiment is ascorbate peroxidase. Kind of experiment: Ascorbate peroxidase activity in tobacco leaf extracts. It is filed as biochemical, Nicotiana tabacum cv. Xanthi nc. The method in brief:
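Soluble extracts from leaves of 6–8-week Nicotiana tabacum cv. Xanthi nc, desalted into 50 mM potassium phosphate pH 7 with 100 μM ascorbate, were assayed (30–50 μg protein) with or without 100 or 1000 μM SA or INA. Ascorbate oxidation followed as A290 decrease; means of three replicates.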

In a further experiment the test system is guaiacol peroxidases. Kind of experiment: Guaiacol peroxidase activity in tobacco leaf extracts. It is filed as biochemical, Nicotiana tabacum cv. Xanthi nc. How it is done: Inhibition of peroxidase by SA and INA was determined by measuring the enzyme activities in extracts prepared from tobacco leaves in the absence or presence of 100 μM or 1000 μM SA or INA. Two grams of leaves from 6-8 week old tobacco plants (Nicotiana tabacum cv. Xanthi nc) grown at 22° C. in a 14 hr light cycle were homogenized under liquid nitrogen using a pestle and mortar.
Total guaiacol peroxidase activity was extracted with 100 mM potassium phosphate, pH 6.2, containing 1% (weight/volume) polyvinylpyrrolidone. In order to also extract the ionically bound cell wall isozymes, the extraction buffer was supplemented with 600 mM KCl. Extraction and centrifugation steps were as described for ascorbate peroxidase. After removal of cell debris and ammonium sulfate precipitation (85%), the extract was desalted against 50 mM potassium phosphate, pH 6, containing 25% glycerol. The extract could be stored at -20° C. without significant loss of peroxidase activity.
Guaiacol peroxidase activity was determined by the method of Chance and Maehly (Methods Enzymol. 2: 764 (1955)) using guaiacol as the substrate.
The formation of tetraguaiacol was monitored at 470 nm. The reaction mixture contained 0.25% guaiacol and 100 mM hydrogen peroxide in 20 mM potassium phosphate, pH 6.2. The amount of protein per 1 ml assay was […]. The reaction was measured for five minutes. The assay for horseradish peroxidase was identical, except that only 0.2-0.5 μg protein was used.

On to `O=C(O)c1ccccc1O` [salicylic acid, 2-hydroxybenzoic acid], for which the Kd in experiment [1] is 14 ± 5 µM; in experiment [2], ~30 µM. Moreover, in the experiment on H2 O2, the “Increase in abundance of H2O2 over water-treated leaves” value is recorded as 50-60%. Moreover, the “% Inhibition of ascorbate peroxidase” value in the experiment on ascorbate peroxidase (200 μM compound, corrected for quenching of auto oxidation) amounted to 83 ± 9%. The IC50 on ascorbate peroxidase (750 μM ascorbate, 25 to 500 μM compound, FIG. 17, read-out: Concentration necessary for 50% inhibition (I50) of ascorbate peroxidase) was ~80 µM. For the same compound, the Activity in the experiment with ascorbate peroxidase (APX, 100 μM compound) is on record as 2.0 ± 0.2 μmols of oxidized substrate mi; in the experiment with ascorbate peroxidase (APX, 1,000 μM compound), 0.24 ± 0.1 μmols of oxidized substrate mi; in the experiment on guaiacol peroxidases (POX, 100 μM compound) it was 2.7 ± 0.3 μmols of oxidized substrate mi; in the experiment on guaiacol peroxidases (POX, 1,000 μM compound), 2.7 ± 0.4 μmols of oxidized substrate mi. In addition, the Inhibition in the experiment on ascorbate peroxidase (APX, 100 μM compound) worked out at 59%; with ascorbate peroxidase (APX, 1,000 μM compound), 95%; in the experiment on guaiacol peroxidases (POX, 100 μM compound), 3%; in the experiment with guaiacol peroxidases (POX, 1,000 μM compound), 3%.

The values are drawn from patent US5989846A, “Assays to identify inducers of plant defense resistance” (Rutgers, The State University of New Jersey, priority 1995, dated 1999).
